Assay results: patent publication US10640495B2, “Heterocycle derivatives having TrkA inhibitory activity” (Shionogi & Co., Ltd., priority 2015, dated 2020)

biological target: human TrkA (Homo sapiens (Human), UniProt P04629); test: Human TrkA inhibition assay (Test Example 2); assay type: biochemical; conditions: Table 152, human TrkA inhibition; read-out: IC50_nM
How it was run: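 Mobility-shift readout of phosphorylated versus unphosphorylated fluorescent peptide gave conversion ratio, normalized to DMSO and no-enzyme wells; IC50 by logistic fit of 10- or 15-point 3-fold dilutions. Conditions: 1 nmol/L enzyme, 15 min compound preincubation, then 500 μmol/L ATP plus 1.5 μmol/L peptide, 120 min, 37 °C.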

human TrkA, sequence (P04629 440-796): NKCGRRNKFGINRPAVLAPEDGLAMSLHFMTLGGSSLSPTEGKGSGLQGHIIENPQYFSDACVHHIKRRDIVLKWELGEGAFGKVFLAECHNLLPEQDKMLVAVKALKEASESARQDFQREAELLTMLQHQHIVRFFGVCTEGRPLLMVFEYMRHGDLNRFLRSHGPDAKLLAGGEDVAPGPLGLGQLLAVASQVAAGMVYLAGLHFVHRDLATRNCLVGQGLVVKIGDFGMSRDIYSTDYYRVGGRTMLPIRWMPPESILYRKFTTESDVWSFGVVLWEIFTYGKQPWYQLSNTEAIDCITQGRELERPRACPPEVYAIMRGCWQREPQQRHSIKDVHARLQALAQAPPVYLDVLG

| IC50 [nM] | Compound |
| --- | --- |
| < 100 | COCCN1C[C@@H](NC(=O)Nc2c(C)c(-c3cnn(C)c3)nn2-c2ccccc2)[C@H](c2ccnc(Cl)c2)O1 (racemic) [Compound I-9] |
| > 1000 | COCC[C@H]1C[C@H](NC(=O)Nc2c(C)c(-c3cnn(C)c3)nn2-c2ccccc2)[C@@H](c2ccc(F)c(F)c2)O1 [Compound I-24] |
| < 100 | COCCN1C[C@@H](NC(=O)Nc2c(C)c(-c3cnc(CO)nc3)nn2-c2ccccc2)[C@H](c2ccc(F)c(F)c2)O1 (racemic) [Compound I-34] |

same assay, conditions: Table 153, human TrkA inhibition; read-out: IC50

| Compound | IC50 [nM] |
| --- | --- |
| COCCN1C[C@@H](NC(=O)Nc2c(C)c(-c3cnc(C)nc3)nn2-c2ccccc2)[C@H](c2ccccc2)O1 (racemic) [Compound I-160] | < 100 |
| COCCN1C[C@@H](NC(=O)Nc2c(C)c(-c3cnn(C)c3)nn2-c2ccc(F)cc2)[C@H](c2ccc(F)c(F)c2)O1 (racemic) [Compound I-87] | < 100 |
| COCCN1C[C@@H](NC(=O)Nc2c(C)c(-c3cc(C(=O)NC4CCOCC4)c(=O)n(C)c3)nn2-c2ccccc2)[C@H](c2cnc(F)c(F)c2)O1 (racemic) [Compound I-74] | < 100 |
| COCCN1C[C@@H](NC(=O)Nc2c(C)c(-c3cccc(C(=O)O)c3)nn2-c2ccccc2)[C@H](c2ccc(F)c(F)c2)O1 (racemic) [Compound I-51] | < 100 |
| COCCN1C[C@@H](NC(=O)Nc2c(C)c(-c3cnc(OC)c(C(=O)NC4CCS(=O)(=O)CC4)c3)nn2-c2ccccc2)[C@H](c2ccnc(F)c2)O1 (racemic) [Compound I-112] | < 100 |
| CNC(=O)c1cc(-c2nn(-c3ccccc3)c(NC(=O)N[C@@H]3CN(Cc4ccco4)O[C@H]3c3ccc(F)c(F)c3)c2C)cn(C)c1=O (racemic) [Compound I-149] | < 100 |
| CCNC(=O)c1cc(-c2nn(-c3ccccc3)c(NC(=O)N[C@@H]3CN(CCOC)O[C@H]3c3ccnc(F)c3)c2C)cn(C)c1=O (racemic) [Compound I-107] | < 100 |

The remaining lines, values ahead:

| IC50 [nM] | Compound |
| --- | --- |
| > 1000 | CCOc1ncc(-c2nn(-c3ccccc3)c(NC(=O)N[C@H]3CN(CCOC)O[C@@H]3c3ccnc(F)c3)c2C)cn1 [Compound I-130] |
| < 100 | CCN1CCC(NC(=O)c2cc(-c3nn(-c4ccccc4)c(NC(=O)N[C@@H]4C[C@@H](CCOC)O[C@H]4c4ccc(F)c(F)c4)c3C)ccn2)CC1 (racemic) [Compound I-64] |
| < 100 | COCCN1C[C@@H](NC(=O)Nc2c(C)c(C3=CCN(C(C)=O)CC3)nn2-c2ccccc2)[C@H](c2cnc(F)c(F)c2)O1 (racemic) [Compound I-49] |
| < 100 | COCCC1C[C@@H](NC(=O)Nc2c(C)c(-c3cnc4c(cnn4C)c3)nn2-c2ccccc2)[C@H](c2ccccc2)O1 (stereo partly shown) [Compound I-98] |
| < 100 | COCCN1C[C@@H](NC(=O)Nc2c(C)c(-c3cnn(C)c3)nn2-c2ccccc2)[C@H](c2ccc(F)cc2)O1 (racemic) [Compound I-116] |

same assay, conditions: Table 154, human TrkA inhibition; read-out: IC50

| Compound | IC50 [nM] |
| --- | --- |
| Cc1c(-c2cnc3c(cnn3C)c2)nn(-c2ccccc2)c1NC(=O)N[C@@H]1CN(C)O[C@H]1c1ccc(F)c(F)c1 (racemic) [Compound I-207] | < 100 |
| COCCN1C[C@@H](NC(=O)Nc2c(C)c(-c3cnc4c(c3)c(=O)n(C)n4C)nn2-c2ccccc2)[C@H](c2ccc(F)c(F)c2)O1 [Compound I-216] | < 100 |
| CNc1ncc(-c2nn(-c3ccccc3)c(NC(=O)N[C@@H]3C[C@@H](CCOC)O[C@H]3c3ccnc(F)c3)c2C)cn1 [Compound I-292] | < 100 |
| COCCN1C[C@@H](NC(=O)Nc2c(C)c(-c3ccc4nc(C(N)=O)cn4c3)nn2-c2ccccc2)[C@H](c2ccnc(F)c2)O1 (racemic) [Compound I-282] | < 100 |
| COCCN1C[C@@H](NC(=O)Nc2c(C)c(-c3cnc4c(c3)OCCN4C(=O)OC(C)(C)C)nn2-c2ccccc2)[C@H](c2ccnc(F)c2)O1 (racemic) [Compound I-280] | < 100 |
| COCCN1C[C@@H](NC(=O)Nc2c(C)c(-n3cnc(C)c3)nn2-c2ccccc2)[C@H](c2cnc(F)c(F)c2)O1 (racemic) [Compound I-297] | < 100 |

Next, values leading:

| IC50 [nM] | Compound |
| --- | --- |
| 100 to 1000 | Cc1c(-c2cnc3c(cnn3C)c2)nn(-c2ccccc2)c1NC(=O)N[C@@H]1CN(Cc2cnn(C)c2)O[C@H]1c1ccc(F)c(F)c1 (racemic) [Compound I-205] |
| < 100 | CCN1C[C@@H](NC(=O)Nc2c(C)c(-c3cnc4c(cnn4C)c3)nn2-c2ccccc2)[C@H](c2ccc(F)c(F)c2)O1 (racemic) [Compound I-200] |
| < 100 | COCCN1C[C@@H](NC(=O)Nc2c(C)c(-c3cnc(N4CC(O)C4)nc3)nn2-c2ccccc2)[C@H](c2ccc(F)cc2)O1 (racemic) [Compound I-265] |

same assay, conditions: Table 155, human TrkA inhibition; read-out: IC50

| Compound | IC50 [nM] |
| --- | --- |
| CNC(=O)c1ccc(-c2nn(-c3ccccc3)c(NC(=O)N[C@@H]3CN(CCOC)O[C@H]3c3ccnc(F)c3)c2C)cn1 (racemic) [Compound I-452] | < 100 |
| COCCN1C[C@@H](NC(=O)Nc2c(C)c(-c3cccc(CN=S(C)(C)=O)c3)nn2-c2ccccc2)[C@H](c2ccc(F)c(F)c2)O1 [Compound I-333] | < 100 |
| COCCN1C[C@@H](NC(=O)Nc2c(C)c(-c3ccc4nc(CO)cn4c3)nn2-c2ccccc2)[C@H](c2ccnc(F)c2)O1 (racemic) [Compound I-347] | < 100 |
| COCC[C@@H]1C[C@@H](NC(=O)Nc2c(C)c(-c3cnn(C)c3)nn2-c2ccccn2)[C@H](c2ccc(F)c(F)c2)O1 (racemic) [Compound I-448] | 100 to 1000 |
| CNC(=O)c1cc(-c2nn(-c3ccccc3)c(NC(=O)N[C@@H]3CN(CCOC)O[C@H]3c3ccc(F)c(F)c3)c2C)cnc1OC [Compound I-391] | < 100 |
| COCCN1C[C@@H](NC(=O)Nc2c(C)c(N3CCN(C)C(=O)C3)nn2-c2ccccc2)[C@H](c2ccc(F)cc2)O1 [Compound I-345] | < 100 |

Further lines, results first:

| IC50 [nM] | Compound |
| --- | --- |
| < 100 | COCCN1C[C@@H](NC(=O)Nc2c(C)c(-c3cnc(OC4COC4)nc3)nn2-c2ccccc2)[C@H](c2ccnc(F)c2)O1 (racemic) [Compound I-465] |
| < 100 | COCCN1C[C@@H](NC(=O)Nc2c(C)c(-c3cnc4c(cnn4C)c3)nn2-c2ccccc2)[C@H](c2ccc(F)c(F)c2)O1 [Compound I-473] |
| < 100 | COCCN1C[C@@H](NC(=O)Nc2c(C)c(-c3cnc(OC4CCN(C)CC4)nc3)nn2-c2ccccc2)[C@H](c2ccc(F)c(F)c2)O1 [Compound I-464] |
| < 100 | COCCN1C[C@@H](NC(=O)Nc2c(C)c(-c3cnc(N4CC5(CCOC5)C4)nc3)nn2-c2ccccc2)[C@H](c2ccnc(F)c2)O1 (racemic) [Compound I-483] |
| < 100 | COCCN1C[C@@H](NC(=O)Nc2c(C)c(OCc3ccccn3)nn2-c2ccccc2)[C@H](c2ccnc(F)c2)O1 (racemic) [Compound I-454] |
| < 100 | CCC(O)(CC)c1cc(-c2nn(-c3ccccc3)c(NC(=O)N[C@@H]3CN(CCOC)O[C@H]3c3ccnc(F)c3)c2C)cnc1OC (racemic) [Compound I-354] |
| < 100 | COCCN1C[C@@H](NC(=O)Nc2c(C)c(-c3cnc(OC)c(F)c3)nn2-c2ccccc2)[C@H](c2ccnc(F)c2)O1 (racemic) [Compound I-367] |
| < 100 | COCCN1C[C@@H](NC(=O)Nc2c(C)c(-c3cnc(OC4CCN(C)CC4)nc3)nn2-c2ccccc2)[C@H](c2cc(F)nc(F)c2)O1 (racemic) [Compound I-418] |

same assay, conditions: Table 156, human TrkA inhibition; read-out: IC50

| IC50 [nM] | Compound |
| --- | --- |
| < 100 | COCCN1C[C@@H](NC(=O)Nc2c(C)c(-c3cnnc(OC)c3)nn2-c2ccccc2)[C@H](c2ccnc(F)c2)O1 (racemic) [Compound I-515] |
| < 100 | CCN1C[C@@H](NC(=O)Nc2c(C)c(OCC3CCN(C(C)=O)CC3)nn2-c2ccccc2)[C@H](c2ccc(F)c(F)c2)O1 (racemic) [Compound I-563] |
| < 100 | CCN1C[C@@H](NC(=O)Nc2c(C)c(-c3cnc(N4CCN(C)CC4)nc3)nn2-c2ccccc2)[C@H](c2ccc(F)c(F)c2)O1 (racemic) [Compound I-540] |
| < 100 | COCC[C@@H]1C[C@@H](NC(=O)Nc2c(C)c(-c3cnc(N4CC(OC)C4)nc3)nn2-c2ccccc2)[C@H](c2ccnc(F)c2)O1 [Compound I-553] |

same assay, conditions: Table 157, human TrkA inhibition; read-out: IC50

| Compound | IC50 [nM] |
| --- | --- |
| COCCN1C[C@@H](NC(=O)Nc2c(C)c(-c3cnc(N4CC[C@@H](OC)C4)nc3)nn2-c2ccccc2)[C@H](c2ccnc(F)c2)O1 [Compound I-585] | < 100 |
| CCN1C[C@@H](NC(=O)Nc2c(C)c(OCC(=O)N3CCN(C)CC3)nn2-c2ccccc2)[C@H](c2ccc(F)c(F)c2)O1 (racemic) [Compound I-649] | < 100 |
| CCN1C[C@@H](NC(=O)Nc2c(C)c(OCCCC(=O)NC)nn2-c2ccccc2)[C@H](c2ccc(F)c(F)c2)O1 (racemic) [Compound I-659] | < 100 |
| CCN1C[C@@H](NC(=O)Nc2c(C)c(OCCCN(C)C)nn2-c2ccccc2)[C@H](c2ccc(F)c(F)c2)O1 (racemic) [Compound I-610] | < 100 |

More lines, now with the values ahead:

| IC50 [nM] | Compound |
| --- | --- |
| < 100 | CCN1C[C@@H](NC(=O)Nc2c(C)c(OCCC3CCN(C)CC3)nn2-c2ccccc2)[C@H](c2ccc(F)c(F)c2)O1 (racemic) [Compound I-672] |
| < 100 | CCN1C[C@@H](NC(=O)Nc2c(C)c(-c3cnc(N4CC(OC)C4)nc3)nn2-c2ccccc2)[C@H](c2ccc(F)c(F)c2)O1 (racemic) [Compound I-628] |

same assay, conditions: human TrkA 1 nmol/L, ATP 500 μmol/L, 120 min at 37° C.; read-out: IC50 values (TrkA phosphorylation inhibition)

| IC50 [nM] | Compound |
| --- | --- |
| 5 | CCN1C[C@@H](NC(=O)Nc2c(C)c(C3=CCN(C(=O)CO)CC3)nn2-c2ccccc2)[C@H](c2ccc(F)c(F)c2)O1 (racemic) [Compound I-655] |
| 1.5 | COCCN1C[C@@H](NC(=O)Nc2c(C)c(-c3cnc4c(c3)CC(=O)N4C)nn2-c2ccccc2)[C@H](c2cnc(F)c(F)c2)O1 (racemic) [Compound I-303] |
| 5.8 | COCCN1C[C@@H](NC(=O)Nc2c(Cl)c(-c3cnc(OC)nc3)nn2-c2ccccc2)[C@H](c2ccnc(F)c2)O1 (racemic) [Compound I-674] |
| 2 | COCCN1C[C@@H](NC(=O)Nc2c(C)c(-c3cnc4c(c3)CC(=O)N4C)nn2-c2ccccc2)[C@H](c2ccnc(F)c2)O1 (racemic) [Compound I-291] |
